Source: patent publication US6126795A, “Electroenzymatic reactor and method for enzymatic catalysis” (The United States of America as represented by the …, priority 1998, dated 2000)

B1: Pdx: putidaredoxin, a 2Fe-2S protein, redox carrier of the CYP101 system (protein, UniProt P00259 2-107, looked up)
Putidaredoxin: SKVVYVSHDGTRRELDVADGVSLMQAAVSNGIYDIVGDCGGSASCATCHVYVNEAFTDKVPAANEREIGMLECVTAELKPNSRLCCQIIMTPELDGIVVDVPDRQW

Key:
CYP101 = CYP101 (Pseudomonas putida, UniProt P00183); test: Electrode-driven camphor hydroxylation by CYP101/Pdx in electroenzymatic reactor; format: biochemical
Description: The proteins were then purified using ion-exchange chromatography and size exclusion chromatography. The final protein preparations were at least 95% pure. On the basis of absorbance ratios, the mole fraction purity ×100 of each subunit protein was greater than 90. In addition, several preparations of the proteins were examined by high-resolution two-dimensional gel electrophoresis and by imaging analysis, and the mole fraction purity ×100 was estimated to be greater than 97 for each protein.
The working electrodes used in the following examples were antimony-doped, tin-oxide coated (0.3 μm thickness) glass slides (4×2 cm, Delta Technologies, Stillwater, Min.), with donor concentration as determined from Mott-Schottky plots (Nd =5×10^20 cm^-3). Prior to the biocatalysis experiments, the electrodes were soaked and sonicated in 1 M NaOH for approximately two hours, then rinsed with distilled water. They were activated in 15% HCl solution using a potential sweep between -0.5 and 1.5 V at 10 mV/s, and stored in distilled water. Film electrode resistance, as measured by a four point probe (Cascade Mictrotech, Inc., Model C4A-44 Beaverton, Oreg.), was 40-50 .OMEGA./sq.
The reference electrode was a standard Ag/AgCl (3M KCl) reference micro-electrode (Abtech Inc. RE803). The counter electrode was made as a coil of 0.5 mm thick Pt wire.
The buffer media was prepared using 0.16 M aqueous KCl and 0.01 M aqueous MgCl2, adjusted to about pH 7.4 with Tris-HCl buffer.
The product, 5-exo-hydroxy-camphor, was identified by GC-MS (gas chromatography and mass spectrophotometry) and quantified by GC-FID (gas chromatography and flame ionization detection). GC injection samples of 1-2 μL were prepared from approximately equal volumes of reaction mixture and an extraction cocktail comprising 0.3 g methylene chloride and 0.02 g KCl with 300 μM n-decane as an internal standard. The GC was operated with a DB-5 column (J&W Scientific, Folsom, Calif.) (30 m) with temperature programing (2 minutes at 60° C., ramp at 10° C./min to 120° C., 2 min at 120° C., ramp up at 15° C./min 160° C.). Retention times (He carrier gas at 2.8 bar pressure) were: n-decane 4.7 minutes, camphor 7.0 minutes, 5-exo-hydroxy-camphor 10.9 minutes. […] Identification of 5-exo-hydroxy-camphor as the product was done by comparing the m/e (mass/charge ratio) pattern (VG analytical Mass Spectrometer, 70 eV electron impact energy) with published spectra; see White et al., Arch. Biochem. Biophys.228, 493-502, 1984, the disclosure of which is incorporated herein by reference.
The same cell as described in Example 1 was equipped with two antimony-doped, tin-oxide electrodes and one platinum wire counter electrode. […] Electrolysis was started by applying a potential equal to -0.7 V (vs Ag/AgCl) to the tin oxide electrodes. […] Therefore, the enzyme underwent about 20 turnovers during the four hour period.
The same cell as described in Example 1 was equipped with-one antimony-doped, tin-oxide electrode and a Pt wire counter electrode isolated by a glass frit. A Pt sheet (0.5×10×30 mm) was positioned close to the surface of the working electrode. […] Initial GC analysis indicated no trace of the product. A potential equal to -0.7 V (vs Ag/AgCl) was applied to the tin oxide electrode. The Pt sheet was left at open circuit potential. After 5 hours of electrolysis, during which the solution was stirred by a magnetic stirrer, 442 μM product (5-exo-hydroxy-camphor) was detected by GC analysis. This corresponds to 1922 turnovers of the enzyme at an average rate of 384 turnovers/hour.
An antimony-doped, tin-oxide working electrode was wrapped in a Pt grid, which was electrically isolated from the conductive side of the electrode. A Pt wire, isolated from the working electrode and Pt grid by a glass frit, was utilized as a counter electrode. […]

[1] = Pdx integrity/activity after electrolysis and redox behaviour on antimony-doped tin-oxide electrode; format: physicochemical
Method: In a 1 cm path-length spectrophotometer cell, with 30 μM Pdx in the above-specified buffer, a potential of -0.7 V (vs. Ag/AgCl) was applied using a potentiostat, and an absorption spectrum was recorded through the transparent SnO2 electrode and 1 cm of reactor solution. The electrode surface area to solution volume ratio was about 5/m. A characteristic absorption spectrum of the oxidized Pdx was recorded initially. After 30 minutes of electrolytic reduction at -0.7 V, a characteristic spectrum of reduced Pdx was recorded. After an additional 30 minutes of electrolysis, the potential was switched to 0 V and a characteristic spectrum of oxidized Pdx was obtained. After electrolysis was complete, 50% of the initial activity of Pdx was recovered, as determined by the method described in Phillips and Langdon, J. Biol. Chem., 237, 2652 (1962), the disclosure of which is incorporated herein by reference. […] The recorded current-potential dependencies were stable and reproducible throughout the 6 hour period. […] The method described in this Example can be used to determine whether the working electrode has redox activity toward the redox carrier.
An antimony-doped, tin-oxide working electrode was wrapped in a Pt grid, which was electrically isolated from the conductive side of the electrode. A Pt wire, isolated from the working electrode and Pt grid by a glass frit, was utilized as a counter electrode. […] After 15.5 hours or electrolysis at -0.65 V (vs Ag/AgCl) and room temperature with continuous stirring, the solution contained 222 μM of product (5-exo-hydroxy-camphor), which corresponds to 1127 turnovers of the enzyme.

| Molecule | Product Turnover Rate (CYP101; 12.8 μM CYP101 (no Pdx), Argon Purge, 800 μM camphor, -0.7 V, 21-22° C.) | Product Turnover Rate (CYP101; 41 μM Pdx (no CYP101), Argon Purge, 800 μM camphor, -0.7 V, 21-22° C.) | Product Turnover Rate (CYP101; 41 μM Pdx + 0.41 μM CYP101, Air Saturated, 800 μM camphor, -0.7 V, 21-22° C.) | Product Turnover Rate (CYP101; 55 μM Pdx + 0.18 μM CYP101, Argon Purge, 800 μM camphor, -0.7 V, 21-22° C.) | Product Turnover Rate (CYP101; 108 μM Pdx + 0.23 μM CYP101, Argon Purge, 800 μM camphor, -0.7 V, 21-22° C.) | Product Turnover Rate (CYP101; 1030 μM Pdx + 0.13 μM CYP101, Argon Purge, initial camphor 2 mM, -0.7 V, 21-22° C.) | Product Turnover Rate (CYP101; 1030 μM Pdx + 0.13 μM CYP101, Argon Purge, initial camphor concentration was mM, 37° C., -0.7 V) | turnovers of the enzyme (CYP101; Example 2: 10 μM CYP101, 118 μM Pdx, 600 μM camphor, -0.7 V, 240 minutes, argon purge) | average rate of enzyme turnover (CYP101; Example 3: 0.23 μM CYP101, 108 μM Pdx, 626 μM camphor, -0.7 V, 5 hours) | turnovers of the enzyme (CYP101; Example 3: 0.23 μM CYP101, 108 μM Pdx, 626 μM camphor, -0.7 V, 5 hours, Pt sheet near working electrode) | turnovers of the enzyme (CYP101; Example 4: 0.2 μM CYP101, 101 μM Pdx, 650 μM camphor, -0.65 V, 15.5 hours, room temperature, Pt grid) | formal potential [1] | initial activity of Pdx recovered after electrolysis ([1]; Example 1: 30 μM Pdx, electrolysis at -0.7 V then 0 V on SnO2 electrode) | Pdx remaining intact after electrolysis (% of the initial concentration) ([1]; Example 4: 101 μM initial Pdx, 15.5 hours at -0.65 V) | Pdx remaining intact after electrolysis (concentration) ([1]; Example 4: 101 μM initial Pdx, 15.5 hours at -0.65 V, spectrophotometric analysis) |
| --- | --- | --- | --- | --- | --- | --- | --- | --- | --- | --- | --- | --- | --- | --- | --- |
| CC12CCC(CC1=O)C2(C)C (stereo not drawn) [camphor] | 0 nmol 5exo-hydroxy-camphor/min/ | 0 nmol 5exo-hydroxy-camphor/min/ | 0.9 nmol 5exo-hydroxy-camphor/min/ | 4.2 nmol 5exo-hydroxy-camphor/min/ | 6.4 nmol 5exo-hydroxy-camphor/min/ | 34 nmol 5exo-hydroxy-camphor/min/ | 36 nmol 5exo-hydroxy-camphor/min/ | about 20 turnovers | 384 turnovers/hour | 1922 turnovers | 1127 turnovers | – | – | – | – |
| B1 | – | – | – | – | – | – | – | – | – | – | – | -0.42 V vs Ag/AgCl | 50% | about 85% | about 85 μM |
